Data reported in PubChem BioAssay AID330 (DTP/NCI, 2004).
Several values for one entry are separate records, joined by “and”; a condition that tells them apart may be missing. Identical values can stand only once. Inconclusive results and toxic doses are left out.

System: P388 leukemia ip, CD2F1 mice, survival T/C
Assay: NCI In Vivo Anticancer Drug Screen. Data for tumor model P388 Leukemia (intraperitoneal) in CD2F1 (CDF1) mice
Settings: endpoint: median survival time, higher = longer survival
Method in brief: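 Mice carrying the transplanted tumor received test compound or vehicle. Survival was recorded in each group, and the value is the treated-group measurement divided by that of the vehicle-treated control group.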

[1] = dose: 100.0 mg/kg/injection, schedule: Q01DX001 (ip), vehicle: saline with Tween-80
[2] = dose: 50.0 mg/kg/injection, schedule: Q01DX009 (ip), vehicle: Klucel (hydroxypropylcellulose) (HPC)
[3] = dose: 100.0 mg/kg/injection, schedule: Q01DX009 (ip), vehicle: Klucel (hydroxypropylcellulose) (HPC)
[4] = dose: 50.0 mg/kg/injection, schedule: Q01DX009 (ip), vehicle: saline
[5] = dose: 100.0 mg/kg/injection, schedule: Q01DX009 (ip), vehicle: saline
[6] = dose: 200.0 mg/kg/injection, schedule: Q01DX009 (ip), vehicle: saline
[7] = dose: 50.0 mg/kg/injection, schedule: Q01DX005 (ip), vehicle: Klucel (hydroxypropylcellulose) (HPC)
[8] = dose: 100.0 mg/kg/injection, schedule: Q01DX005 (ip), vehicle: Klucel (hydroxypropylcellulose) (HPC)
[9] = dose: 200.0 mg/kg/injection, schedule: Q01DX005 (ip), vehicle: Klucel (hydroxypropylcellulose) (HPC)
[10] = dose: 12.5 mg/kg/injection, schedule: Q01DX009 (ip), vehicle: Klucel (hydroxypropylcellulose) (HPC)
[11] = dose: 25.0 mg/kg/injection, schedule: Q01DX009 (ip), vehicle: Klucel (hydroxypropylcellulose) (HPC)

With c1ccc2c3cc(cc2c1)OCCOCCOCCOc1ccc2ccccc2c1-c1c(ccc2ccccc12)OCCOCCOc1ccc2ccccc2c1-3 the T/C [1] was 97 % of control and the T/C (dose: 200.0 mg/kg/injection, schedule: Q01DX001 (ip), vehicle: saline with Tween-80) was 94 % of control.

In the case of Brc1nn[nH]n1, the T/C [2] is reported as 101 % of control and the T/C [3] is reported as 90 % of control.

In the case of COC(=O)/C(C)=C/C1N=C1c1ccccc1 (stereo unspecified), the T/C (dose: 25.0 mg/kg/injection, schedule: Q01DX001 (ip), vehicle: saline with Tween-80) is reported as 114 % of control, the T/C (dose: 50.0 mg/kg/injection, schedule: Q01DX001 (ip), vehicle: saline with Tween-80) is reported as 118 % of control and the T/C [1] is reported as 123 % of control.

In the case of COc1cc2c(c(OC)c1OC)-c1ccc(OC)c(=O)cc1C(=O)CC2, the T/C (dose: 0.62 mg/kg/injection, schedule: Q01DX009 (ip), vehicle: Klucel (hydroxypropylcellulose) (HPC)) is reported as 115 % of control and the T/C (dose: 5.0 mg/kg/injection, schedule: Q01DX009 (ip), vehicle: Klucel (hydroxypropylcellulose) (HPC)) is reported as 157 % of control.

For COC(=O)C[N+](=O)[O-], the T/C [4] was 103 % of control, the T/C [5] was 99 % of control and the T/C [6] was 110 % of control.

Cc1ccc(NC(=O)N(C)C)cc1NC(=O)N(C)C was tested, and the T/C (dose: 60.0 mg/kg/injection, schedule: Q01DX005 (ip), vehicle: saline with Tween-80) was 100 % of control, the T/C (dose: 120.0 mg/kg/injection, schedule: Q01DX005 (ip), vehicle: saline with Tween-80) was 100 % of control and the T/C (dose: 240.0 mg/kg/injection, schedule: Q01DX005 (ip), vehicle: saline with Tween-80) was 101 % of control.

For COP(=O)(OC)OC.COP(=O)(OC)OC.COP(=O)(OC)OC.COP(=O)(OC)OC.COP(=O)(OC)OC.COP(=O)(OC)OC.[Mn+2].[O-][Cl+3]([O-])([O-])O, the T/C [4] was 99 % of control and 100 % of control, the T/C [5] was 111 % of control and the T/C [6] was 109 % of control. For the same molecule, the T/C (dose: 400.0 mg/kg/injection, schedule: Q01DX009 (ip), vehicle: saline) was 123 % of control.

With COC(=O)C1(CC(=O)c2cccc([N+](=O)[O-])c2)NC(=S)NC(=O)C1C#N (stereo unspecified) the T/C (dose: 60.0 mg/kg/injection, schedule: Q01DX005 (ip), vehicle: suspension in saline) was 100 % of control, the T/C (dose: 120.0 mg/kg/injection, schedule: Q01DX005 (ip), vehicle: suspension in saline) was 90 % of control and the T/C (dose: 240.0 mg/kg/injection, schedule: Q01DX005 (ip), vehicle: suspension in saline) was 90 % of control.

For CC(=O)NS(=O)(=O)c1ccc(NN=Nc2ccccc2Cl)cc1, the T/C [7] was 95 % of control, the T/C [8] was 94 % of control and the T/C [9] was 97 % of control.

For CCC(=O)Nc1c(O)c(Br)c(NC(=O)CC)c(O)c1Br, the T/C (dose: 60.0 mg/kg/injection, schedule: Q01DX005 (ip), vehicle: saline) was 104 % of control, the T/C (dose: 120.0 mg/kg/injection, schedule: Q01DX005 (ip), vehicle: saline) was 100 % of control and the T/C (dose: 240.0 mg/kg/injection, schedule: Q01DX005 (ip), vehicle: saline) was 105 % of control.

With CCOC(=O)c1sc(SSc2sc(C(=O)OCC)c(-c3ccccc3)c2[N+](=O)[O-])c([N+](=O)[O-])c1-c1ccccc1 the T/C (dose: 100.0 mg/kg/injection, schedule: Q04DX002 (ip), vehicle: saline with Tween-80) was 104 % of control, the T/C (dose: 200.0 mg/kg/injection, schedule: Q04DX002 (ip), vehicle: saline with Tween-80) was 107 % of control and the T/C (dose: 400.0 mg/kg/injection, schedule: Q04DX002 (ip), vehicle: saline with Tween-80) was 118 % of control.

O=c1/c(=C/c2ccccc2)sc2nc(-c3ccccc3)nn12 was tested, and the T/C [10] was 87 % of control, the T/C [11] was 88 % of control and the T/C [2] was 89 % of control and 91 % of control. The T/C [3] was 107 % of control and the T/C (dose: 200.0 mg/kg/injection, schedule: Q01DX009 (ip), vehicle: Klucel (hydroxypropylcellulose) (HPC)) was 107 % of control.

N#CCCN(N)S(=O)(=O)c1ccc(Br)cc1 was tested, and the T/C [7] was 102 % of control, the T/C [8] was 96 % of control and the T/C [9] was 115 % of control.

In the case of COc1cccc(CSC(=N)N)c1, the T/C [10] is reported as 109 % of control, the T/C [11] is reported as 99 % of control and the T/C [2] is reported as 100 % of control and 110 % of control.

For CC1(C)OC(c2ccccc2)=Nc2ccccc21, the T/C (dose: 100.0 mg/kg/injection, schedule: Q04DX002 (ip), vehicle: saline) was 104 % of control, the T/C (dose: 200.0 mg/kg/injection, schedule: Q04DX002 (ip), vehicle: saline) was 103 % of control and the T/C (dose: 400.0 mg/kg/injection, schedule: Q04DX002 (ip), vehicle: saline) was 99 % of control.

In the case of C=C1C(=O)OC2/C=C(\C)CC/C=C(/C=O)C(OC)C(OC(=O)C(C)C)C12 (stereo unspecified), the T/C (dose: 6.25 mg/kg/injection, schedule: Q01DX009 (ip), vehicle: Klucel (hydroxypropylcellulose) (HPC)) is reported as 106 % of control, the T/C [10] is reported as 97 % of control and the T/C [11] is reported as 100 % of control.

With C[CH2][Sn]([CH2]C(=O)OC)([CH2]C(=O)OC)[c]1ccccc1 the T/C (dose: 25.0 mg/kg/injection, schedule: Q01DX005 (ip), vehicle: saline) was 157 % of control, the T/C (dose: 50.0 mg/kg/injection, schedule: Q01DX005 (ip), vehicle: saline) was 181 % of control and the T/C (dose: 100.0 mg/kg/injection, schedule: Q01DX005 (ip), vehicle: saline) was 168 % of control.
